Reference: patent US7001770B1, “Calpain inhibitors and their applications” (priority 1998, dated 2006)
Where “and” joins values, the source holds several entries; their conditions need not be identical. Equal entries are not always repeated. Square brackets hold non-standard residues; d marks the D form. Peptide text beside a SMILES is read from it. Nle = CCCC[C@H](N)C(=O)O

What was measured:
[1] = system: beta-galactosidase transgene; assay: In vivo transgene RNA in liver by RT-PCR; design: species or system C57BL/6 mice; details: CI-1 60 mg/kg ip, three administrations; 9×10^9 particle/ml rAd beta-galactosidase tail vein; seen in one third of the mice
Protocol: […] C57BL/6 mice were treated with 60 mg/kg injected intraperitoneally on day minus one. Three control mice were injected with CI-1 solvent only (PBS/0.02% DMSO). On day zero, all mice were tail vein injected with 9×10^9 particle/ml with a recombinant adenovirus encoding the beta-galactosidase transgene. CI-1 or solvent was administed one additional time on day one for three total intraperitoneal administrations of CI-1. Mice were sacrificed three days and nine days later (four-and ten days post-infection respectively), and livers were harvested for quantitative PCR and RT-PCR to detect viral DNA and viral transcript (b-galactosidase) respectively. One third of the miceexpressed a high level of transgene RNA in response to calpain inhibitor 1 treatment, as compared with virus alone.

[2] = system: JC (mouse mammary carcinoma, p53 mutant) cells; assay: Rodent cancer model, flank tumors; format: in vivo, mice; details: calpain inhibitor alone, 60 mg/kg intraperitoneal
Protocol: The in vitro results presented above were confirmed in a rodent cancer model. Briefly, healthy immune competent mice were injected with JC (mouse mammary carcinoma, p53 mutant) cells and tumors were permitted to form. This is a particularly rigorous model as JC cells are particularly difficult to infect and the mouse is an immunocompetent mouse capable of producing an immune response to the human adenovirus and/or the human p53 transgene. After 2 weeks, flank tumors were present in all animals. Calpain inhibitor was administered via intraperitoneal injection to a concentration of approximately 60 mg/kg approximately 24 hours prior to administration of the recombinant rAd-p53 virus. Appropriate control viruses and solutions were employed. The mice were injected with 1×10^10 particles of rAd-p53 per injection intratumorally in combination with intraperitoneally injected CI-1 at a concentration of 60 mg/kg for a period of 5 days, 2 days off and then for 5 more days. Tumor growth/regression was evaluated at Day 4, Day 8 and Day 11 post-treatment (FIGS. 12 A,B and C respectively). In all instances the rate of decrease in tumor growth was at least 40% reduction in fold increase in tumor volume in mice treated with calpain inhibitor 1 in addition to FTCB, in comparison with the mice treated with the FTCB vector alone.

DLD1 cells = assay: Apoptosis by annexin V-FITC staining, flow cytometry; format: cell-based; details: for Percent Annexin V Positive Staining: 26 hours post treatment
Protocol: (§1) P53 was administered to the cells by the use of the replication defective adenoviral vector ACN53 described in Wills, et al., supra. The effect of varying concentrations of rAd-p53 (from […] to 2×10^9 rAd-p53 particles/ml of solution) was investigated in combination with CI-1 in a range of 5–20 μm. The effects of individual and combination treatment was determined in the in DLD1, RKO, HLF and SK-Hep1 cells was investigated in substantial accordance with the teaching of Examples 2 and 3 herein. The percentage of apoptotic cells was determined at 17 hours post treatment (with the exception of U87 cells (24 hours) and HeLa cells (68 hours)) with annexin V positive staining. The results are presented in graphical format in FIG. 3 of the attached drawings. In brief, the results were as follows:
(§2) The effect of an inhibitor of μ-calpains, CI-1 (N-acetyl-leu-leu-norleucinal), was investigated for its ability to enhance p53 mediated apoptosis in tumor cell lines having p53+ and p53− status listed in Table1. Each cell line was treated with 5–50 μM CI-1 for 17–26 hours. To detect a G0/G1 block, bromodeoxyuridine (BrdU) incorporation followed by flow cytometric analysis was done 17 hours post-treatment as described in Example 4 herein. […] The results of these experiments are presented in FIGS. 1 and 2 of the attached drawings. In FIG. 1, each point on the graph represents percentage annexin V positive after background percentage (DMF alone) was subtracted.
(§3) An aliquot containing approximately 1×10^6 cells of each type was placed in a T-225 flask. The effect of varying concentrations of rAd-p53 (from 1×10^7 to 2×10^9ACN53 particles/ml of solution) was investigated in combination with CI-1 in a range of 5–20 μM. In each instance, the cell line was infected with 1×10^7–1×10^9 particles/ml of cell culture with the ACN53 using the empty cassette virus (ZZCB) as a control. In each instance, the cells were exposed to the virus for a period of one hour. At the end of this time, the virus was washed off the from the cells and fresh media containing an appropriate concentration of CI-1 was added.
(§4) CI-1 was obtained from Boehringer-Mannheim Biochemicals (Indianapolis, Ind.). The CI-1 containing media was prepared as follows. CI-1 was diluted in dimethylformamide (DMF) to a concentration of 33.3 μM/μl. The CI-1 solution in DMF was added to achieve a final concentration in the media of 5 or 10 μM final concentration of CI-1. An equivalent volume of DMF alone was added to the control cells. Calpain inhibitor 2, N-acetyl-leu—leu-methioninal (Boehringer Mannheim) was added to cell lines at 5–50 μM final concentration with or without rAd-p53 for 26 hours.
(§5) At a time of 17 (or 26 hours) post infection, the percentage of cells undergoing apoptosis was determined by convential apoptotic markers. Apoptosis was monitored visually by observing blebbed nuclei characteristic of apoptosis, by propidium iodide staining (using propidium iodide commercially available from Molecular Probes, Inc.) followed by flow cytometric analysis to look for subgenomic populations of cells, and by labeling cells with annexin V-FITC (commercially available from Boehringer Mannheim) in substantial accordance with the instructions provided by the manufacturer, followed by flow cytometric analysis on a FACScan Flow Cytometer (commercially available from Becton Dickinson).

RKO cells = assay: as above; format: cell-based; details: for Percent Annexin V Positive Staining: 26 hours post treatment
Protocol: as §1, §2, §3, §4, §5

SK-Hep1 cells = assay: as above; format: cell-based; details: for Percent Annexin V Positive Staining: 26 hours post treatment
Protocol: as §1, §2, §3, §4, §5

HeLa cells = assay: as above; format: cell-based; details: for Percent Annexin V Positive Staining: 44 hours post treatment
Protocol: as §1, §2, §3, §4, §5

CCCC[C@@H](C=O)NC(=O)[C@H](CC(C)C)NC(=O)[C@H](CC(C)C)NC(C)=O [CI-1, N-acetyl-leu-leu-norleucinal] (Ac-Leu-Leu-[Nle]-aldehyde)
level of transgene RNA in liver compared with virus alone [1]: Approximately a six fold higher level
antitumor effects [2]: significant antitumor effects
Percentage of Cells Undergoing Apoptosis (DLD1 cells; 10 μM CI-1, 17 hours post treatment): 15%
Percent Annexin V Positive Staining (DLD1 cells; CI-1 10 μM): 15%
Percent Annexin V Positive Staining (DLD1 cells; CI-1 20 μM): 17%
Percent Annexin V Positive Staining (DLD1 cells; CI-1 30 μM): 17%
Percent Annexin V Positive Staining (DLD1 cells; CI-1 50 μM): 18%
Percent Annexin V Positive Staining (RKO cells; CI-1 10 μM): 13%
Percent Annexin V Positive Staining (RKO cells; CI-1 20 μM): 52% and 33%
Percent Annexin V Positive Staining (RKO cells; CI-1 50 μM): 57%
Percentage of Cells Undergoing Apoptosis (RKO cells; [20 μM] CI-1, 17 hours post treatment): 13%
Percent Annexin V Positive Staining (SK-Hep1 cells; CI-1 10 μM): 32%
Percent Annexin V Positive Staining (SK-Hep1 cells; CI-1 20 μM): 66%
Percent Annexin V Positive Staining (SK-Hep1 cells; CI-1 30 μM): 73%
Percent Annexin V Positive Staining (SK-Hep1 cells; CI-1 40 μM): 75%
Percent Annexin V Positive Staining (SK-Hep1 cells; CI-1 50 μM): 73%
Percentage of Cells Undergoing Apoptosis (SK-Hep1 cells; [5 μM] CI-1, 17 hours post treatment): 11%
Percentage of Cells Undergoing Apoptosis (HeLa cells; 10 μM CI-1, 68 hours post treatment): 8.3%
Percent Annexin V Positive Staining (HeLa cells; CI-1 10 μM): 28%
Percent Annexin V Positive Staining (HeLa cells; CI-1 20 μM): 48%
Percent Annexin V Positive Staining (HeLa cells; CI-1 30 μM): 55%
Percent Annexin V Positive Staining (HeLa cells; CI-1 40 μM): 67%
Percent Annexin V Positive Staining (HeLa cells; CI-1 50 μM): 80%
induction of apoptosis (HeLa cells; higher concentrations of CI-1, HeLa have E6 mediated degradation of p53): induced to apoptosis
